Data set [1] in a line: Metabolic stability in human liver microsomes (in vitro t1/2). Type of data set: in vitro ADME. The settings on record: for half-life at 2 µM: human liver microsomes 0.5 mg/mL, 2 μM compound, read-out: Human microsome t1/2, min; for Human microsome % 60 min: human liver microsomes. The protocol: (§1) The following are assays that may be used to evaluate the metabolic stability of compounds of Formula (I) in human, rat, or mouse microsomes. The assays follow a common procedure recited below. 1. […] Two separated experiments were performed as follows. a) With NADPH: 10 μL of 20 mg/mL liver microsomes and 40 μL of 10 mM NADPH were added to the incubations. […] The final concentration of microsomes was 0.5 mg/mL. 3. The reaction was started with the addition of 4 μL of 200 μM control compound or test compound solutions. Verapamil was used as positive control in this study. The final concentration of test compound or control compound was 2 μM. 4. Aliquots of 50 μL were taken from the reaction solution at 0, 15, 30, 45 and 60 min. […] Samples were centrifuged at 3,220 g for 40 minutes. A 90 μL aliquot of the supernatant was mixed with 90 μL of ultra-pure H2O and then used for LC-MS/MS analysis. 5. Data analysis. All calculations were carried out using Microsoft Excel. Peak areas were determined from extracted ion chromatograms. The slope value, k, was determined by linear regression of the natural logarithm of the remaining percentage of the parent drug vs. incubation time curve. The in vitro half-life (in vitro t1/2) was determined from the slope value: in vitro t1/2=−(0.693)/k.
(In general: Microsomes from liver hold many membrane-bound enzymes, among them those of drug oxidation.)

The nature of data set [2]: Metabolic stability in mouse liver microsomes (in vitro t1/2). It counts as in vitro ADME. The settings on record: for half-life at 2 µM: mouse liver microsomes 0.5 mg/mL, 2 μM compound, read-out: Mouse microsome t1/2, min; for Mouse microsome % 60 min: mouse liver microsomes. The protocol:
as §1

Data set [3] is described as follows: Metabolic stability in rat liver microsomes (in vitro t1/2). The settings on record: for half-life at 2 µM: read-out: Rat microsome t1/2, min; for Rat microsome % 60 min: rat liver microsomes. Type of data set: in vitro ADME. The protocol:
as §1

The target in another data set is MCT4 (Homo sapiens (Human), UniProt O15427). Description: Assay 3: MCT4-mediated lactate transport in MDA-MB-231 breast cancer cells. Type of data set: cell-based. The settings on record: MDA-MB-231 cells; lactate transport. The gist of the method: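 Read-out is BCECF fluorescence tracking the intracellular pH shift from MCT4-mediated lactate/H+ co-transport. Before measurement, MDA-MB-231 cells take up BCECF-AM for 5 min at 37° C, then are washed into Tyrode's Solution, pH 7.4.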
MCT4, sequence (O15427 whole entry, looked up): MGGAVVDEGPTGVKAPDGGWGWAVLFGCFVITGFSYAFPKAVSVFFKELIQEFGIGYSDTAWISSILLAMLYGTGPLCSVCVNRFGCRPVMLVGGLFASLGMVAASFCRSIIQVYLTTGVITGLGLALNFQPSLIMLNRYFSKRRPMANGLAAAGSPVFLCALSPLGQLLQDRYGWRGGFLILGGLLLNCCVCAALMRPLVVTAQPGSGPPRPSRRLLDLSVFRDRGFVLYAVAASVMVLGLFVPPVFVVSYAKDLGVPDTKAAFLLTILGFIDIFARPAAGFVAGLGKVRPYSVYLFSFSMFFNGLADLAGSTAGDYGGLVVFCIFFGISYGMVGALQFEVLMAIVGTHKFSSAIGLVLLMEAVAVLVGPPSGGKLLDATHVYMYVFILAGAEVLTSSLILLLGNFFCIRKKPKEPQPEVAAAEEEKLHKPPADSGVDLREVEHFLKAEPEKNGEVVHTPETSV
MCT4, sequence (P35613 whole entry partner, looked up): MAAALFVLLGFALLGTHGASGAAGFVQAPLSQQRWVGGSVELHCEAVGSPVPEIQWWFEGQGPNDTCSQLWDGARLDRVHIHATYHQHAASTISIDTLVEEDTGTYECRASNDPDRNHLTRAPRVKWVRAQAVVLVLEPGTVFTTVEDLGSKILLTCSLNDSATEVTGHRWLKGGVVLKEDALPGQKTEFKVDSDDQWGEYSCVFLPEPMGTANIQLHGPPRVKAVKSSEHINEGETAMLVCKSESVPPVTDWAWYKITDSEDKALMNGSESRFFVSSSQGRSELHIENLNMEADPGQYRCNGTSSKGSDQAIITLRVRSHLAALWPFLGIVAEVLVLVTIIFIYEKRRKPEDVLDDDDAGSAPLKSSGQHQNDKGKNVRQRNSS

Another data set deals with MCT1 (Homo sapiens (Human), UniProt P53985). Briefly: Assay 4: MCT1-mediated lactate transport in BT20 breast cancer cells. Type of data set: cell-based. The settings on record: Table 27. The gist of the method: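 Transport started with 10 mM L-lactate on BCECF-loaded BT20 cells in Tyrode's Solution, pH 7.4. Dye loading: BCECF-AM ester (30 mM DMSO stock), 5 min at 37° C, then one wash.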
MCT1, sequence (P53985 whole entry): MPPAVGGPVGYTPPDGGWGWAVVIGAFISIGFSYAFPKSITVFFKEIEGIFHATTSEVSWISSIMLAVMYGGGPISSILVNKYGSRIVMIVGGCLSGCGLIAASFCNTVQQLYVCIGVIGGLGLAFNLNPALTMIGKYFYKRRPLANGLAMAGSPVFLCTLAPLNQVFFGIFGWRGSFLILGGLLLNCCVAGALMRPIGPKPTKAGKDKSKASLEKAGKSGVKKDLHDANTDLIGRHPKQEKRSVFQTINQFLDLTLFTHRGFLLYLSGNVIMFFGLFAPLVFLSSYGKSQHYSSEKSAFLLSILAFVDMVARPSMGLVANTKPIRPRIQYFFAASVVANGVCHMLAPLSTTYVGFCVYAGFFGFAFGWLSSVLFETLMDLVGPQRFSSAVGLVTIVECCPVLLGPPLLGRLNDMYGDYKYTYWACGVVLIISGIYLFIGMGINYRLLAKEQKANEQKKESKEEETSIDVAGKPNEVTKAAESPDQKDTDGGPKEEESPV
MCT1, sequence (P35613 140-385 partner): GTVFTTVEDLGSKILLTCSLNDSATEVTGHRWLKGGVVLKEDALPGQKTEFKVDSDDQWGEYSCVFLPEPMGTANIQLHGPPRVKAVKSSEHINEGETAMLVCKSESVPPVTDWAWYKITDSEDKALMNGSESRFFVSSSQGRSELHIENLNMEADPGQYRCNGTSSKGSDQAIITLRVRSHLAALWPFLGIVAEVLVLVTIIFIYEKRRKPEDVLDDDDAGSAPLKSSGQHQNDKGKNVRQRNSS

Where [4] appears, read: rat liver microsomes 0.5 mg/mL, 2 μM compound.

On to `COc1cc(-c2cc(COC(C)(C)C(=O)O)nn2Cc2ccccc2Cl)cs1` [Example 66, 2-([1-[(2-chlorophenyl)methyl]-5-(5-methoxythien-3-yl)-1H-pyrazol-3-yl]-methoxy)-2-methylpropanoic acid], for which, in data set [1], the half-life at 2 µM came to 2 h and the “Human microsome % 60 min” value came to 73%. Moreover, in data set [2], the half-life at 2 µM was found to be 4.33 h and the “Mouse microsome % 60 min” value is 83%.
With `CCC(C)(OCc1cc(-c2cccc(OC)c2)n(Cc2ccccc2Cl)n1)C(=O)O` (centres unmarked) [Example 68, 2-([1-[(2-Chlorophenyl)methyl]-5-(3-methoxyphenyl)-1H-pyrazol-3-yl)methoxy)-2-methylbutanoic acid], in data set [1], the half-life at 2 µM is 13.2 h and the “Human microsome % 60 min” value is given as 95%. In data set [2], the half-life at 2 µM was 6.33 h and the “Mouse microsome % 60 min” value is 91%.
Regarding `CC[C@](C)(OCc1cc(-c2cccc(OC)c2)n(Cc2ccccc2Cl)n1)C(=O)O` [Example 120, (2S)-2-([1-[(2-chlorophenyl)methyl]-5-(3-methoxyphenyl)-1H-pyrazol-3-yl]methoxy)-2-methylbutanoic Acid], the values for the half-life at 2 µM in data set [3] (setting [4]), in data set [1] and in data set [2] were 0.85 h, 3.3 h and 6.83 h, respectively. Besides, the “Rat microsome % 60 min” value in data set [3] was 44%. For the same molecule, the IC50 was determined as 4 nM against MCT4 and 22000 nM at MCT1. Also, in data set [1], the “Human microsome % 60 min” value is recorded as 81%. For the same molecule, the “Mouse microsome % 60 min” value in data set [2] came to 101%.
For the molecule `CC[C@@](C)(OCc1cc(-c2cccc(OC)c2)n(Cc2ccccc2Cl)n1)C(=O)O` [Example 121, (2R)-2-([1-[(2-chlorophenyl)methyl]-5-(3-methoxyphenyl)-1H-pyrazol-3-yl]methoxy)-2-methylbutanoic Acid], the half-life at 2 µM in data set [3] (setting [4]) is 1.43 h; in data set [1], 3.3 h; in data set [2], 3.1 h. Also, the “Rat microsome % 60 min” value in data set [3] came out at 61%. In addition, the figures for the 50% inhibitory concentration (IC50) at MCT4 and at MCT1 were 8 nM and 21000 nM, respectively. Besides, in data set [1], the “Human microsome % 60 min” value stood at 82%. For the same molecule, the “Mouse microsome % 60 min” value in data set [2] came out at 81%.
Regarding `CC(C)COc1ncc(-c2cc(COC(C)(C)C(=O)O)nn2Cc2ccccc2Cl)s1` [Example 132, 2-([1-[(2-Chlorophenyl)methyl]-5-[2-(2-methylpropoxy)-1,3-thiazol-5-yl]-1H-pyrazol-3-yl]methoxy)-2-methylpropanoic acid], the half-life at 2 µM amounted to 1.87 h in data set [3] (setting [4]), 1.93 h in data set [1] and 1.63 h in data set [2]. For the same molecule, in data set [3], the “Rat microsome % 60 min” value is reported as 70%. Moreover, the IC50 on MCT4 turned out to be 8.6 nM; against MCT1 it was 8200 nM. In addition, in data set [1], the “Human microsome % 60 min” value worked out at 70%. For the same molecule, the “Mouse microsome % 60 min” value in data set [2] worked out at 64%.
As for `CC(C)Oc1ncc(-c2cc(COC(C)(C)C(=O)O)nn2Cc2ccccc2Cl)s1` [Example 133, 2-([1-[(2-Chlorophenyl)methyl]-5-[2-(propan-2-yloxy)-1,3-thiazol-5-yl]-1H-pyrazol-3-yl]methoxy)-2-methylpropanoic acid], the half-life at 2 µM in data set [3] (setting [4]) came out at 6.73 h; in data set [1] it was 16.8 h; in data set [2], 5.73 h. In data set [3], the “Rat microsome % 60 min” value was found to be 91%. Moreover, the half-inhibitory concentration (IC50) on MCT4 was 13 nM; on MCT1, greater than 33000 nM. In data set [1], the “Human microsome % 60 min” value is given as 97%. The “Mouse microsome % 60 min” value in data set [2] worked out at 90%.
On to `CC(C)Cc1ncc(-c2cc(COC(C)(C)C(=O)O)nn2Cc2ccccc2Cl)o1` [Example 134, 2-([1-[(2-Chlorophenyl)methyl]-5-[2-(2-methylpropyl)-1,3-oxazol-5-yl]-1H-pyrazol-3-yl]methoxy)-2-methylpropanoic acid], for which the half-life at 2 µM in data set [3] (setting [4]) came out at 4.4 h; in data set [1], 3.1 h; in data set [2], 1.82 h. In data set [3], the “Rat microsome % 60 min” value was found to be 85%. Also, the “Human microsome % 60 min” value in data set [1] amounted to 80%. For the same molecule, the “Mouse microsome % 60 min” value in data set [2] came out at 72%.
`COc1cccc(-c2cc(COC(C)(C)C(=O)O)nn2Cc2ccccc2OC(C)C)c1` [Example 140, 2-([5-(3-Methoxyphenyl)-1-[[2-(propan-2-yloxy)phenyl]methyl]-1H-pyrazol-3-yl)methoxy)-2-methylpropanoic acid]: the half-life at 2 µM in data set [3] (setting [4]) was 0.983 h; in data set [1], 1.82 h; in data set [2] it was 1.07 h. The “Rat microsome % 60 min” value in data set [3] is reported as 48%. Besides, the IC50 on MCT4 is 8.3 nM; against MCT1, 16000 nM. In data set [1], the “Human microsome % 60 min” value amounted to 67%. The “Mouse microsome % 60 min” value in data set [2] stood at 62%.
Consider `CC(C)(C)COc1cccc(-c2cc(COC(C)(C)C(=O)O)nn2-c2ccccc2N2CCC2)c1` [Example 155, 2-([1-[2-(Azetidin-1-yl)phenyl]-5-[3-(2,2-di-methylpropoxy)phenyl]-1H-pyrazol-3-yl]-methoxy)-2-methylpropanoic acid], for which the half-life at 2 µM was 1.22 h in data set [3] (setting [4]), 0.867 h in data set [1] and 0.633 h in data set [2]. Besides, in data set [3], the “Rat microsome % 60 min” value was determined as 70%. Moreover, the IC50 at MCT4 was 0.32 nM; against MCT1, greater than 33000 nM. Also, the “Human microsome % 60 min” value in data set [1] came out at 62%. Besides, the “Mouse microsome % 60 min” value in data set [2] was 37%.
As to `CCn1ncc2ccc(-c3cc(COC(C)(C)C(=O)O)nn3-c3ccccc3Cl)cc21` [Example 157, 2-([1-(2-chlorophenyl)-5-(1-ethyl-1H-indazol-6-yl)-1H-pyrazol-3-yl]methoxy)-2-methylpropanoic acid], the half-life at 2 µM in data set [3] (setting [4]) is 12.5 h. Besides, the “Rat microsome % 60 min” value in data set [3] is 97%. In data set [1], the half-life at 2 µM worked out at 2.48 h and the “Human microsome % 60 min” value is recorded as 78%. Besides, in data set [2], the half-life at 2 µM was found to be 161 h and the “Mouse microsome % 60 min” value worked out at 102%.
For the molecule `Cn1ncc2cccc(-n3nc(COC(C)(C)C(=O)O)cc3-c3cccc(OC4CCC4)c3)c21` [Example 166, 2-([5-(3-Cyclobutoxyphenyl)-1-(1-methyl-1H-indazol-7-yl)-1H-pyrazol-3-yl]-methoxy)-2-methylpropanoic acid], the “Rat microsome t1/2, min” value in data set [3] (setting [4]) is on record as “∞”. In addition, the “Rat microsome % 60 min” value in data set [3] was 102%. Also, at MCT4, the IC50 worked out at 5.9 nM. Besides, in data set [1], the half-life at 2 µM worked out at 21.1 h and the “Human microsome % 60 min” value was 94%. The molecule further came in with an IC50 on MCT1 of 53000 nM. Also, in data set [2], the half-life at 2 µM was found to be 3.23 h and the “Mouse microsome % 60 min” value turned out to be 82%.
`Cn1ncc2cccc(-n3nc(COC(C)(C)C(=O)O)cc3-c3cccc(OCC4CCC4)c3)c21` [Example 168, 2-([5-[3-(cyclobutylmethoxy)phenyl]-1-(1-methyl-1H-indazol-7-yl)-1H-pyrazol-3-yl]-methoxy)-2-methylpropanoic acid]: the values for the half-life at 2 µM in data set [3] (setting [4]), in data set [1] and in data set [2] were 2.88 h, 3.12 h and 3.82 h, respectively. Further, in data set [3], the “Rat microsome % 60 min” value was found to be 81%. Also, the half-maximal inhibitory concentration (IC50) on MCT4 worked out at 1.7 nM. Moreover, the “Human microsome % 60 min” value in data set [1] turned out to be 78%. Besides, the “Mouse microsome % 60 min” value in data set [2] is listed as 81%.
As to `CC(C)(C)COc1cccc(-c2cc(COC(C)(C)C(=O)O)nn2-c2ccccc2Cl)c1` [Example 177, 2-([1-(2-chlorophenyl)-5-[3-(2,2-dimethyl-propoxy)phenyl]-1H-pyrazol-3-yl]methoxy)-2-methylpropanoic acid], the half-life at 2 µM in data set [3] (setting [4]) stood at 10.6 h; in data set [1], 3.07 h; in data set [2] it was 5.57 h. Moreover, the “Rat microsome % 60 min” value in data set [3] came to 90%. Moreover, the IC50 against MCT4 stood at 1.4 nM; against MCT1 it was 35000 nM. For the same molecule, in data set [1], the “Human microsome % 60 min” value is 75%. For the same molecule, the “Mouse microsome % 60 min” value in data set [2] worked out at 87%.
Regarding `CCOc1cccc(-n2nc(COC(C)(C)C(=O)O)cc2-c2cc(OC)cc(OC)c2)c1` [Example 243, 2-([5-(3,5-Dimethoxyphenyl)-1-(3-ethoxyphenyl)-1H-pyrazol-3-yl]methoxy)-2-methylpropanoic acid], the half-life at 2 µM in data set [3] (setting [4]) is 5.03 h. Besides, the “Rat microsome % 60 min” value in data set [3] was determined as 88%. Moreover, in data set [1], the half-life at 2 µM stood at 7.22 h and the “Human microsome % 60 min” value turned out to be 88%. The same molecule came in with an IC50 against MCT1 of 78000 nM. Besides, in data set [2], the half-life at 2 µM was 21.7 h and the “Mouse microsome % 60 min” value is recorded as 97%.

The term IC50 denotes the concentration needed to halve the response being measured.

The values above are taken from US10214492B2, “Heterocyclic inhibitors of MCT4” (Vettore, LLC, priority 2016, dated 2019).
